Experimental data taken from paper PMC10787398, “Simultaneous determination of colistin sulfate and tigecycline in human plasma by liquid chromatography-tandem mass spectrometry method” (BMC Chemistry, 2024).

Legend:
[1] = Plasma trough and peak concentrations in patients on intravenous polymyxin and tigecycline (HPLC-MS/MS); settings: First dose 100 mg maintenance dose 50 mg q12h iv, plasma, HPLC-MS/MS; for Tigecycline Peak concentration: 30 min after 7th administration; for Tigecycline Trough concentration: before 7th administration
Source text: Plasma samples were collected from patients receiving simultaneous intravenous polymyxin and tigecycline treatment. Inclusion criteria: ① Patients receiving simultaneous intravenous polymyxin and tigecycline treatment; ② Age ≥ 18 years; ③ Patients who consent to the monitoring of polymyxin and tigecycline blood drug concentrations during treatment. Exclusion criteria: ① Pregnant or lactating women; ② Treatment duration < 3 days; ③ Local administration; ④ Blood dialysis treatment. Once the blood drug concentration reached a steady state, 3 ml of venous blood was collected before and 30 min after the seventh administration to measure the peak and trough concentrations. This study was conducted with approval from the Ethics Committee of Second Hospital of Hebei Medical University (2020-R551). This study was conducted in accordance with the declaration of Helsinki.
Two hundred microliters of the plasma sample were adopted, with 20 µL of the internal standard added, and it was vortexed for 20 s. Two hundred microliters of 5% trichloroacetic acid was added for acidification and vortexed for 10 s. Two hundred microliters of methanol was added for extraction, vortexed for 2 min, and centrifuged at 10,900 r/min for 5 min. Two hundred microliters of the supernatant were aspirated into the injection bottle, and 10 µL of the sample was injected for the HPLC–MS/MS analysis.
All patients received an initial dose of 100 mg and a maintenance dose of 50 mg q12h for tigecycline. Three milliliters of venous blood were collected before and after the seventh administration to measure the peak and trough concentrations of the drugs.

[2] = Stability of analytes in spiked plasma samples under storage conditions; type: in vitro ADME, human; settings: for Measured value, Stored at -80℃ for 7 days / Measured value, Automatic sampler 15℃ for 24 h / Measured value, Freeze-thaw for 3 cycles / Measured value, At 4℃ for 12 h / Measured value, At room temperature for 6 h: HPLC-MS/MS, n = 5; for Measured value, Automatic sampler 15℃ for 24 h: automatic sampler 15 ℃ 24 h; for Measured value, Freeze-thaw for 3 cycles: frozen at -80 °C and thawed at room temperature; for Measured value, At 4℃ for 12 h: refrigerator 4 °C 12 h
Protocol: Plasma samples with low, medium, and high mass concentrations were prepared (the mass concentrations of colistin sulfate were 0.1, 1, and 8 µg/mL, respectively, and those of tigecycline were 0.05, 0.5, and 4 µg/mL, respectively). Five replicates of each concentration were prepared and placed in a refrigerator at 4 °C for 12 h, at room temperature for 6 h, and in an automatic sampler at 15 ℃ for 24 h. The samples were, on three occasions, frozen at − 80 °C and thawed at room temperature, and then placed in a − 80 °C refrigerator for seven days. The concentrations and RSDs of colistin sulfate and tigecycline in the plasma samples were calculated based on the accompanying standard curve of the day to evaluate their stabilities.

[3] = patient 1 (BMI 27.04 kg/m^2, CrCL 107 ml/min, ALB 33.8 g/L)
[4] = patient 2 (BMI 27.69 kg/m^2, CrCL 36 ml/min, ALB 30.35 g/L)
[5] = patient 3 (BMI 23.88 kg/m^2, CrCL 90 ml/min, ALB 26.80 g/L)
[6] = patient 4 (BMI 18.72 kg/m^2, CrCL 111 ml/min, ALB 32.50 g/L)
[7] = patient 5 (BMI 22.14 kg/m^2, CrCL 84 ml/min, ALB 28.00 g/L)
[8] = patient 6 (Femaee, BMI 19.3 kg/m^2, CrCL 161 ml/min, ALB 35.3 g/L)
[9] = patient 7 (BMI 24.16 kg/m^2, CrCL 59 ml/min, ALB 36.72 g/L)
[10] = patient 8 (BMI 27.44 kg/m^2, CrCL 98 ml/min, ALB 33.30 g/L)
[11] = patient 9 (BMI 20.91 kg/m^2, CrCL 106 ml/min, ALB 32.71 g/L)
[12] = patient 10 (BMI 21.95 kg/m^2, CrCL 129 ml/min, ALB 31.89 g/L)
[13] = patient 11 (BMI 22.51 kg/m^2, CrCL 27 ml/min, ALB 27.10 g/L)
[14] = patient 12 (BMI 23.71 kg/m^2, CrCL 170 ml/min, ALB 32.50 g/L)
[15] = plasma QC high, nominal colistin sulfate 8 µg/mL, tigecycline 4 µg/mL
[16] = plasma QC low, nominal colistin sulfate 0.1 µg/mL, tigecycline 0.05 µg/mL
[17] = plasma QC medium, nominal colistin sulfate 1 µg/mL, tigecycline 0.5 µg/mL

- Tigecycline Peak concentration [1, 3]: 1.72 µg/mL
- Tigecycline Trough concentration [1, 3]: 0.79 µg/mL
- Tigecycline Peak concentration [1, 4]: 1.68 µg/mL
- Tigecycline Trough concentration [1, 4]: 0.81 µg/mL
- Tigecycline Peak concentration [1, 5]: 1.67 µg/mL
- Tigecycline Trough concentration [1, 5]: 0.77 µg/mL
- Tigecycline Peak concentration [1, 6]: 1.47 µg/mL
- Tigecycline Trough concentration [1, 6]: 0.69 µg/mL
- Tigecycline Peak concentration [1, 7]: 1.17 µg/mL
- Tigecycline Trough concentration [1, 7]: 0.58 µg/mL
- Tigecycline Peak concentration [1, 8]: 1.11 µg/mL
- Tigecycline Trough concentration [1, 8]: 0.66 µg/mL
- Tigecycline Peak concentration [1, 9]: 1.01 µg/mL
- Tigecycline Trough concentration [1, 9]: 0.58 µg/mL
- Tigecycline Peak concentration [1, 10]: 0.92 µg/mL
- Tigecycline Trough concentration [1, 10]: 0.63 µg/mL
- Tigecycline Peak concentration [1, 11]: 1.22 µg/mL
- Tigecycline Trough concentration [1, 11]: 0.65 µg/mL
- Tigecycline Peak concentration [1, 12]: 1.08 µg/mL
- Tigecycline Trough concentration [1, 12]: 0.33 µg/mL
- Tigecycline Peak concentration [1, 13]: 0.99 µg/mL
- Tigecycline Trough concentration [1, 13]: 0.25 µg/mL
- Tigecycline Peak concentration [1, 14]: 1.78 µg/mL
- Tigecycline Trough concentration [1, 14]: 0.48 µg/mL
- Measured value, Stored at -80℃ for 7 days ([2]; plasma QC high, nominal colistin sulfate 8 µg/mL, tigecycline 4 µg/mL, -80 °C 7 days): 4.30 ± 0.03 µg/mL
- Measured value, Automatic sampler 15℃ for 24 h [2, 15]: 4.00 ± 0.26 µg/mL
- Measured value, Freeze-thaw for 3 cycles [2, 15]: 3.82 ± 0.45 µg/mL
- Measured value, At 4℃ for 12 h [2, 15]: 3.93 ± 0.36 µg/mL
- Measured value, At room temperature for 6 h ([2]; plasma QC high, nominal colistin sulfate 8 µg/mL, tigecycline 4 µg/mL, room temperature 6 h): 4.87 ± 0.07 µg/mL
- Measured value, Stored at -80℃ for 7 days ([2]; plasma QC low, nominal colistin sulfate 0.1 µg/mL, tigecycline 0.05 µg/mL, -80 °C 7 days): 0.05 ± 0.00 µg/mL
- Measured value, Automatic sampler 15℃ for 24 h [2, 16]: 0.05 ± 0.00 µg/mL
- Measured value, Freeze-thaw for 3 cycles [2, 16]: 0.05 ± 0.00 µg/mL
- Measured value, At 4℃ for 12 h [2, 16]: 0.05 ± 0.00 µg/mL
- Measured value, At room temperature for 6 h ([2]; plasma QC low, nominal colistin sulfate 0.1 µg/mL, tigecycline 0.05 µg/mL, room temperature 6 h): 0.05 ± 0.00 µg/mL
- Measured value, Stored at -80℃ for 7 days ([2]; plasma QC medium, nominal colistin sulfate 1 µg/mL, tigecycline 0.5 µg/mL, -80 °C 7 days): 0.46 ± 0.03 µg/mL
- Measured value, Automatic sampler 15℃ for 24 h [2, 17]: 0.49 ± 0.03 µg/mL
- Measured value, Freeze-thaw for 3 cycles [2, 17]: 0.52 ± 0.04 µg/mL
- Measured value, At 4℃ for 12 h [2, 17]: 0.46 ± 0.01 µg/mL
- Measured value, At room temperature for 6 h ([2]; plasma QC medium, nominal colistin sulfate 1 µg/mL, tigecycline 0.5 µg/mL, room temperature 6 h): 0.54 ± 0.03 µg/mL
- stability under the above conditions ([2]; plasma samples, 4 °C 12 h, room temperature 6 h, autosampler 15 ℃ 24 h, 3 freeze-thaw cycles, -80 °C 7 days): good stability
Structure (SMILES): CN(C)c1cc(NC(=O)CNC(C)(C)C)c(O)c2c1C[C@H]1C[C@H]3[C@H](N(C)C)C(O)=C(C(N)=O)C(=O)[C@@]3(O)C(O)=C1C2=O [Tigecycline, tigecycline]
